The target in one experiment is T1, Human ACC1 (Homo sapiens, UniProt Q13085).
T1 construct: made in house; host or cells: SF-9 insect cells (baculovirus, pFAST-BacHTc)
Kind of experiment: In vitro enzymatic ACC activity assay (malachite green), ACC1. It is filed as biochemical. The settings on record: recombinant His-tagged enzyme, absorbance at 620 nm. The protocol:
(§1) Provided in Example A is an in vitro enzymatic ACC activity assay for activity against ACC. The binding affinity of the test compound to ACC1 or ACC2 is determined by the changes in absorbance (at 620 nm); […]. It should be noted that a variety of other expression systems and hosts are also suitable for the expression of ACC, as would be readily appreciated by one of skill in the art.
Human ACC1 cDNA was amplified from human liver cDNA by polymerase chain reaction using primers; 5′[…]3′ (SEQ ID NO: 1) and 5′[…]3′ (SEQ ID NO: 2). The amplified DNA fragment was digested by restriction enzyme SalI and NotI, and cloned into pFAST-BacHTc (Invitrogen). This plasmid DNA was used for preparation of recombinant vaculovirus with BAC-TO-BAC Baculovirus Expression System (Invitrogen).
SF-9 cells were infected with the vaculovirus and cultured at 27° C. for 3 days. Harvested cells were homogenized in buffer A (25 mM HEPES (pH7.5), 130 mM NaCl, 1 mM EDTA, 25 mM sodium glycerophosphate, 1 mM sodium orthovanadate, 10% glycerol, complete protease inhibitor), and subjected to ultracentrifuge at 185700×g for 50 min at 4° C. ACC1 protein with 6×His-tag at the N-terminal was purified from the supernatant using Ni-NTA Super Flow Gel (QIAGEN). Eluted protein was dialysed against buffer B (50 mM HEPES (pH 7.5), 300 mM NaCl, 10 mM MgCl2, 10 mM tripotassium citrate, 2 mM dithiothreitol) and concentrated using Vivaspin20 ultrafiltration tube (Sartorius).
(§2) Malachite green solution was prepared by mixing 100 mL of solution A (0.12% malachite green in 5NH2SO4), 25 mL of solution B (7.5% ammonium molybdate) and 2 mL of solution C (11% TWEEN-20).
(§3) ACC1 was diluted to 8 μg/mL in reaction buffer (50 mM HEPES pH7.5, 10 mM MgCl2, 10 mM tripotassium citrate, 2 mM DTT, 0.75 mg/mL fatty acid free BSA) and 10 μL diluted enzyme solution was pored into each well of 384-well clear bottom plate. Test compound was diluted in the reaction buffer and 5 μL of the compound solution was added into each well, and the mixture was incubated at 30° C. for 60 minutes. Reaction was initiated by addition of 5 μL substrate solution (50 mM KHCO3, 200 μM ATP, 200 μM acetyl-CoA). After incubation at 30° C. for 20 minutes, reaction was terminated by addition of 5 μL malachite green solution and absorbance at 620 nm was measured.
(§4) Percent activity at each concentration of compound was calculated from the following equation: […]
(§5) Data were subjected to nonlinear regression analysis using GraphPad Prism Software (GraphPad Software Inc.) to obtain IC50 values.

The next experiment concerns the target T2, Human ACC2 (Homo sapiens, UniProt O00763).
T2 construct: made in house; host or cells: SF-9 insect cells (baculovirus, pFAST-BacHTa)
Kind of experiment: In vitro enzymatic ACC activity assay (malachite green), ACC2. Conditions: recombinant His-tagged enzyme, absorbance at 620 nm. It is filed as biochemical. The protocol:
as §1
Human ACC2 cDNA except coding region for mitochondria localization sequence was amplified from human skeletal muscle cDNA by polymerase chain reaction using primers; 5′[…]3′ (SEQ ID NO: 3) and 5′[…]3′ (SEQ ID NO: 4). The amplified DNA fragment was digested by SalI and AflII, and cloned into pFAST-BacHTa (Invitrogen). Preparation of recombinant vaculovirus, infection of the virus to SF-9 cells and purification of recombinant ACC2 protein with 6×His-tag at the N-terminal were performed in the same method as described above.
as §2, §3
ACC2 was diluted to 6.4 μg/mL in reaction buffer, and the activity was measured by the same method as described for ACC1.
as §4, §5

From patent US20090005375A1, “ACETYL COENZYME A CARBOXYLASE INHIBITORS” (priority 2007, published 2009) come the findings set out here.

Molecules are shown by their SMILES.

T2 sequence (O00763 117-2458 limits assumed): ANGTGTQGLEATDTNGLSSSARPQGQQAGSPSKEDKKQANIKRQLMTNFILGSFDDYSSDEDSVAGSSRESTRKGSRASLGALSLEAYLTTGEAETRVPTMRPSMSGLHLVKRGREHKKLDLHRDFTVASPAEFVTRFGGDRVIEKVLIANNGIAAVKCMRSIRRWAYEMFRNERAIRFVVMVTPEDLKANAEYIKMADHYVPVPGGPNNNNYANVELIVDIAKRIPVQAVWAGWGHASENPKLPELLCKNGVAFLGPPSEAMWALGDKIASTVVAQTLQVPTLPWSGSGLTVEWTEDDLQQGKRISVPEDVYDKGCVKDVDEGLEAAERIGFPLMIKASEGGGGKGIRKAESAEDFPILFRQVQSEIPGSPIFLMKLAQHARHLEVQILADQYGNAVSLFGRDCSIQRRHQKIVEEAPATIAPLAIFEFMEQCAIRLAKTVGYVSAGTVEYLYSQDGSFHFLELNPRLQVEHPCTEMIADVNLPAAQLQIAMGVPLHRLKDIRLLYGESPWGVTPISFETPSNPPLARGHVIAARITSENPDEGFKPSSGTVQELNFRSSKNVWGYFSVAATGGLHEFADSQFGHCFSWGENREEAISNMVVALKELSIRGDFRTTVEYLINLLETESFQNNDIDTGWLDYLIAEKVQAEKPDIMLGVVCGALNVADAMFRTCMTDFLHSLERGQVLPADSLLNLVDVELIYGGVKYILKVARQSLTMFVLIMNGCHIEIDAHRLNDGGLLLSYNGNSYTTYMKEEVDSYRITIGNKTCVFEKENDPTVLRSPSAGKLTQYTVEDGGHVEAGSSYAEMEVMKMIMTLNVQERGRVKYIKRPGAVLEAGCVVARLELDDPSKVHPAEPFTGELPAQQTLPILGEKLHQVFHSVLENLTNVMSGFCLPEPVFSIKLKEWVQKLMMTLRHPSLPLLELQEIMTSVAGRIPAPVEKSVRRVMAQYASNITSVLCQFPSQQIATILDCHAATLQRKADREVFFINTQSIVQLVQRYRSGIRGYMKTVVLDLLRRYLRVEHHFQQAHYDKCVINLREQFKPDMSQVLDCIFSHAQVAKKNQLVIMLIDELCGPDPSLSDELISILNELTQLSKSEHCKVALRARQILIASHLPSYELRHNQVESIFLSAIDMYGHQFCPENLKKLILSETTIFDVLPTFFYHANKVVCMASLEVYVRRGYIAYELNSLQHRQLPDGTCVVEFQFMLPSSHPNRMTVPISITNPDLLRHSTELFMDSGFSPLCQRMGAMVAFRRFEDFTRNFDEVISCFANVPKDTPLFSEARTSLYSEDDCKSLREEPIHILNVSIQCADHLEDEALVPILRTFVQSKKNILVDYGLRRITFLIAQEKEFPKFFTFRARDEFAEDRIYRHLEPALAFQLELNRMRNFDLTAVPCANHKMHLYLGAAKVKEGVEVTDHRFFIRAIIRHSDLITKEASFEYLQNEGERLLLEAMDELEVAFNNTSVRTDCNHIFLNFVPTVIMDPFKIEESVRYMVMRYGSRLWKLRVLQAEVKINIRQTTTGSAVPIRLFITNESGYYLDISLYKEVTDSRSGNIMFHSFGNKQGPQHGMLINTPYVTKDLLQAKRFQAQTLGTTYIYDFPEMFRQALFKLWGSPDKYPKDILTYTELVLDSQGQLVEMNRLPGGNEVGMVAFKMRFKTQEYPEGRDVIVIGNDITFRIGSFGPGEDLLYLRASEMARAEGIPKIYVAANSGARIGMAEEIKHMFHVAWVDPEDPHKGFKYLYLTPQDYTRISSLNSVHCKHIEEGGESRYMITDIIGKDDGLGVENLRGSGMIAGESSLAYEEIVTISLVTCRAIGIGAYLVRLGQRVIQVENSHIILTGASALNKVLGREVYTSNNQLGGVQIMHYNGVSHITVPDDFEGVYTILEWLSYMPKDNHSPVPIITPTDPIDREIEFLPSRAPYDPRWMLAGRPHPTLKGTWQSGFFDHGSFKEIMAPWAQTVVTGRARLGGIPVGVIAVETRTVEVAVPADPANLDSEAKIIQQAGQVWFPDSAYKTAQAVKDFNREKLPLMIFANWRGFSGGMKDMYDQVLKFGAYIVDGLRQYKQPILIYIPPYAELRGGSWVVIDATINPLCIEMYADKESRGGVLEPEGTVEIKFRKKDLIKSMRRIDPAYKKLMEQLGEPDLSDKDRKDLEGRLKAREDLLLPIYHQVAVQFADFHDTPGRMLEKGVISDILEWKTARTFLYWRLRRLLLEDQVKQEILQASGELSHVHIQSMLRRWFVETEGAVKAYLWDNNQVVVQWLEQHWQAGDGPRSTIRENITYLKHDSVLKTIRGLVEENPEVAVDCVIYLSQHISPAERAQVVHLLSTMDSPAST

In general, IC50 refers to the concentration at which inhibition is half-maximal. With `CCNC(=O)Nc1sc2ccccc2c1C(=O)N1CCN(S(=O)(=O)CCC(=O)N2CCOCC2)CC1` [Example 36, ethyl-3-(3-(4-(3-morpholino-3-oxopropylsulfonyl)piperazine-1-carbonyl)benzo[b]thiophen-2-yl)urea], the IC50 at Human ACC1 and at Human ACC2 was 5 to 50 µM each time.

Consider `CCNC(=O)Nc1sc2ccccc2c1C(=O)N1CCC(S(=O)(=O)c2cccc(OC)c2)CC1` [Example 37, ethyl-3-(3-(4-(3-methoxyphenylsulfonyl)piperidine-1-carbonyl)benzo[b]thiophen-2-yl)urea], for which the IC50 on Human ACC1 was > 50 µM; at Human ACC2, < 5 µM.

`CCNC(=O)Nc1sc2ccccc2c1C(=O)N1CCC(S(=O)(=O)c2ccc3c(c2)OCO3)CC1` [Example 38, 1-(3-(4-(benzo[d][1,3]dioxol-5-ylsulfonyl)piperidine-1-carbonyl)benzo[b]thiophen-2-yl)-3-ethylurea]: the IC50 on Human ACC1 and on Human ACC2 was > 50 µM throughout.

Turning to `CCNC(=O)Nc1sc2ccccc2c1C(=O)N1CCC(Sc2cccc(OC)c2)CC1` [Example 39, ethyl-3-(3-(4-(3-methoxyphenylthio)piperidine-1-carbonyl)benzo[b]thiophen-2-yl)urea], the IC50 on Human ACC1 and on Human ACC2 was < 5 µM in each case.

Take `CCNC(=O)Nc1sc2ccccc2c1C(=O)N1CCC(Sc2cccc(OC(F)(F)F)c2)CC1` [Example 40, ethyl-3-(3-(4-(3-(trifluoromethoxy)phenylthio)piperidine-1-carbonyl)benzo[b]thiophen-2-yl)urea]: the IC50 on Human ACC1 was > 50 µM; at Human ACC2, 5 to 50 µM.

With `CCNC(=O)Nc1sc2ccccc2c1C(=O)N1CCC([S+]([O-])c2cccc(OC)c2)CC1` (centres unmarked) [Example 41, ethyl-3-(3-(4-(3-methoxyphenylsulfinyl)piperidine-1-carbonyl)benzo[b]thiophen-2-yl)urea], the IC50 at Human ACC1 and at Human ACC2 was 5 to 50 µM throughout.

For `CCNC(=O)Nc1sc2ccccc2c1C(=O)N1CCC([S+]([O-])c2cccc(OC(F)(F)F)c2)CC1` (centres unmarked) [Example 42, ethyl-3-(3-(4-(3-(trifluoromethoxy)phenylsulfinyl)piperidine-1-carbonyl)benzo[b]thiophen-2-yl)urea], the IC50 is > 50 µM at Human ACC1 and 5 to 50 µM at Human ACC2.
